Test results published in patent US5382593A, “New 3-(hydroxybenzylidenyl)-indolin-2-ones” (Adir et Compagnie, priority 1992, dated 1995).

Key:
[1] = system: cyclooxygenase of human granulocytes; assay: Inhibition of PGE2 secretion (cyclooxygenase) by human granulocytes stimulated by calcium ionophore A23187; type: cell-based; conditions: concentration of 10^-5 M, A23187 5×10^-6 M, read-out: inhibition of the production of PGE2
Source text: The aim of this study is to measure the inhibiting activity of the compounds of the invention on the secretion of prostaglandin E2 (PGE2), one of the principal prostanoids produced by the cyclooxygenase of human granulocytes stimulated by the calcium ionophore A23187.
Human venous blood from blood donors who have not taken medicaments for 2 weeks is drawn into polypropylene tubes containing 1 volume of anti-coagulant (2.73% citric acid, 4.48% sodium citrate, 2% glucose) per 10 volumes of blood.
In the hour following taking the samples, 6% dextran is added to the blood (0.3 cm^3 /cm^3 of blood). After incubation for 30 min. at 37° C., the plasma rich in white corpuscles is centrifuged at a speed of 100 g for 5 min. at 4° C. […]
After centrifugation at a speed of 420 g for 30 min. at 4° C., the sediment rich in granulocytes is resuspended in 5 cm^3 of phosphate buffer and centrifuged at a speed of 100 g for 5 min. at 4° C. Finally, the granulocytes are counted and the density is adjusted to 3×10^6 cells/cm^3 of phosphate buffer.
The cells (3×10^6 cells/cm^3) are preincubated at 37° C. for 15 min. in the absence or presence of the products to be tested at the desired concentration. […] The base level is measured using cells without either the products to be tested or A23187. […]
The quantity of PGE2 produced is measured by a radioimmunological assay (RIA). […]

[2] = system: lipoxygenase, human polynuclear cells; assay: Inhibition of LTB4 production (lipoxygenase) by human polynuclear cells activated by calcium ionophore A 23187; type: cell-based; conditions: concentration of 10^-5 M
Description: The production of the principal prostanoid, resulting from lipoxygenase, produced by human polynuclear cells: leucotriene B4 (LTB4) is measured by a radioimmunological assay.

CC(C)(Sc1cc(C(C)(C)C)c(O)c(C(C)(C)C)c1)Sc1cc(C(C)(C)C)c(O)c(C(C)(C)C)c1 [probucol]
inhibition at 10 µM [1]: ~40% | inhibition at 10 µM [2]: ~40%
